Assay results reported in paper PMC9120017, “Inhibition mechanism of the chloride channel TMEM16A by the pore blocker 1PBC” (Nature Communications, 2022).
Like-named read-outs stand apart in the source and are kept apart here.

Biological target: T1, mouse TMEM16A mutant I636A (Mus musculus, UniProt Q8BHY3, I636A)
T1 construct: expressed in transfected cells; host or cells: HEK293T
T1 sequence (Q8BHY3 1-960 I636A): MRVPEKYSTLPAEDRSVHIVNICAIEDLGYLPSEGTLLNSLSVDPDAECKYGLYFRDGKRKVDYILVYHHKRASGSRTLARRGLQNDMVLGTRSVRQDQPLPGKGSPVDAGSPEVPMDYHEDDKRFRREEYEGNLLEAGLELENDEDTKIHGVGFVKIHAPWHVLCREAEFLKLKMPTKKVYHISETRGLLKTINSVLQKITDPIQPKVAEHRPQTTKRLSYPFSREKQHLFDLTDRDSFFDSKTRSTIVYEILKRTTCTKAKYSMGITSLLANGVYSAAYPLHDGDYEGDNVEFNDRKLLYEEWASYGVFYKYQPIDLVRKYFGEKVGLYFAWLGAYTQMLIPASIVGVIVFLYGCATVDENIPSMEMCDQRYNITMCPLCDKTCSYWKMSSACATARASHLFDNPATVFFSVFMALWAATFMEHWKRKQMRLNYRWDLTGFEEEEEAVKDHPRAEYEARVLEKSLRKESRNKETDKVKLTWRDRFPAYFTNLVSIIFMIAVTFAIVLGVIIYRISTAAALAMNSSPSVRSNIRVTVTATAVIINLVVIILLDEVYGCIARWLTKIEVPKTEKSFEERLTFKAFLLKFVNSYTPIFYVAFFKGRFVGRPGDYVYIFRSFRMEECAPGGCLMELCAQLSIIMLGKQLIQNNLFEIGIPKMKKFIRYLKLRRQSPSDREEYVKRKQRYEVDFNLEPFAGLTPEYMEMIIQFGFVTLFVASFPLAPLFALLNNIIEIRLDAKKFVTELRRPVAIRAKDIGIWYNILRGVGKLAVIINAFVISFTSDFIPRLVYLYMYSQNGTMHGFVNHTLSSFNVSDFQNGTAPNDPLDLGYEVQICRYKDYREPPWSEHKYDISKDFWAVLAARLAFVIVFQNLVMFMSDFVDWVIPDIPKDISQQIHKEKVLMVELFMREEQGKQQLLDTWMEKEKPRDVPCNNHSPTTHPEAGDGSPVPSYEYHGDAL
Assay: Inside-out patch recording of 1PBC block, mutant I636A
Type: cell-based
Conditions: for remaining activity at 3 µM: 1PBC conc 3; for remaining activity at 3 µM / remaining activity at 10 µM / remaining activity at 30 µM / remaining activity at 100 µM: read-out: relative current in 1PBC (avr); for remaining activity at 10 µM: 1PBC conc 10; for remaining activity at 30 µM: 1PBC conc 30; for remaining activity at 100 µM: 1PBC conc 100
Description: HEK293T cells (ATCC CRL-1573) were maintained in Dulbecco’s modified Eagle’s medium (DMEM; Sigma-Aldrich) supplemented with 10 U ml^−1 penicillin, 0.1 mg ml^−1 streptomycin (Sigma-Aldrich), 2 mM L-glutamine (Sigma-Aldrich), and 10% FBS (Sigma-Aldrich) in a humidified atmosphere containing 5% CO2 at 37 °C. HEK293S GnTI^− cells (ATCC CRL-3022) were maintained in HyClone HyCell TransFx-H medium (GE Healthcare) supplemented with 10 U ml^−1 penicillin, 0.1 mg ml^−1 streptomycin, 4 mM L-glutamine, 0.15% poloxamer 188 (Sigma-Aldrich), and 1% FBS in an atmosphere containing 5% CO2 at 185 rpm at 37 °C. The ac splice variant of mouse TMEM16A (UniProt ID: Q8BHY3), mouse TMEM16B (UniProt ID: Q8CFW1), or mouse TMEM16F (UniProt ID: Q6P9J9) bearing a 3C cleavage site, a Venus YFP, a Myc tag, and a Streptavidin-binding peptide (SBP) downstream of the open reading frame in a modified pcDNA3.1 vector (Invitrogen) were used as described previously[21],[31]. Mutations were introduced using a modified QuikChange method[58] and were verified by sequencing.
HEK293T cells were transfected with 3–4 μg DNA per 6 cm Petri dish using the calcium phosphate co-precipitation method and were used within 24–96 h after transfection. Recordings were performed on inside-out patches excised from HEK293T cells expressing the construct of interest. Patch pipettes were pulled from borosilicate glass capillaries (O.D. 1.5 mm, I.D. 0.86 mm, Sutter Instrument) and were fire-polished with a microforge (Narishige) before use. Pipette resistance was typically 3–8 MΩ when filled with the recording solutions detailed below. Seal resistance was typically 4 GΩ or higher. Voltage-clamp recordings were made using Axopatch 200B, Digidata 1550, and Clampex 10.7 (Molecular Devices). Analog signals were filtered with the in-built 4-pole Bessel filter at 10 kHz and were digitized at 20 kHz. Solution exchange was achieved using a gravity-fed system through a theta glass pipette mounted on an ultra-fast piezo-driven stepper (Siskiyou). […] All recordings were performed at 20 °C.
A symmetrical ionic condition was used throughout. Stock solution with Ca^2+-EGTA contained 150 mM NaCl, 5.99 mM Ca(OH)2, 5 mM EGTA, and 10 mM HEPES at pH 7.40. Stock solution with EGTA contained 150 mM NaCl, 5 mM EGTA, and 10 mM HEPES at pH 7.40. Free Ca^2+ concentrations were adjusted by mixing the stock solutions at the required ratios calculated using the WEBMAXC program (http://web.stanford.edu/~cpatton/webmaxcS.htm). Patch pipettes were filled with the stock solution with Ca^2+-EGTA, which has a free Ca^2+ concentration of 1 mM. 1PBC (ChemBridge) stock was reconstituted in anhydrous DMSO (Sigma-Aldrich) at 100 mM and stored at −20 °C. Working solutions with 1PBC were prepared by serial dilution. Unless otherwise stated, experiments were performed at a saturating Ca^2+ concentration as shown in Supplementary Table 1 and the primary data were corrected for current rundown as described previously[21],[25].
Concentration-response relations, obtained from the ratio of the I-V plots before and after the application of the blocker, were fitted to the Hill equation,1 I/Imax=1/1+IC50/[blocker]^h where I/Imax is the normalized current responses, IC50 defines the concentration at which inhibition is at its half-maximum, and h is the Hill coefficient.

Question: With N#Cc1c(C(F)(F)F)cc(O)n2c1nc1ccccc12 [1PBC] as the compound, how does the IC50 (0 mV, 15 µM Ca2+) read?
Answer: 6.73 µM

Question: What about the remaining activity at 3 µM (0 mV) of the same compound?
Answer: 68.4%

Question: What about the remaining activity at 10 µM (0 mV) of the same compound?
Answer: 39.2%

Question: What about the remaining activity at 30 µM (0 mV) of the same compound?
Answer: 19.6%

Question: And the remaining activity at 100 µM (0 mV)?
Answer: 9.71%

Question: What about the IC50 (20 mV, 15 µM Ca2+) of the same compound?
Answer: 5.47 µM

Question: What about the remaining activity at 3 µM (20 mV) of the same compound?
Answer: 63.6%

Question: And the remaining activity at 10 µM (20 mV)?
Answer: 34.4%

Question: What about the remaining activity at 30 µM (20 mV) of the same compound?
Answer: 17.1%

Question: And the remaining activity at 100 µM (20 mV)?
Answer: 9.23%

Question: And the IC50 (40 mV, 15 µM Ca2+)?
Answer: 4.65 µM

Question: What about the remaining activity at 3 µM (40 mV) of the same compound?
Answer: 60.6%

Question: And the remaining activity at 10 µM (40 mV)?
Answer: 30.8%

Question: What about the remaining activity at 30 µM (40 mV) of the same compound?
Answer: 15.1%

Question: And the remaining activity at 100 µM (40 mV)?
Answer: 5.83%

Question: And the IC50 (60 mV, 15 µM Ca2+)?
Answer: 4.03 µM

Question: What about the remaining activity at 3 µM (60 mV) of the same compound?
Answer: 56.6%

Question: And the remaining activity at 10 µM (60 mV)?
Answer: 27.9%

Question: What about the remaining activity at 30 µM (60 mV) of the same compound?
Answer: 14.3%

Question: What about the remaining activity at 100 µM (60 mV) of the same compound?
Answer: 6.18%

Question: And the “log-fold IC50 (change of mutant vs WT)” value (80 mV)?
Answer: 0.2863

Question: And the IC50 (80 mV, 15 µM Ca2+)?
Answer: 3.83 µM

Question: What about the remaining activity at 3 µM (80 mV) of the same compound?
Answer: 55.6%

Question: And the remaining activity at 10 µM (80 mV)?
Answer: 26.8%

Question: And the remaining activity at 30 µM (80 mV)?
Answer: 13.6%

Question: And the remaining activity at 100 µM (80 mV)?
Answer: 5.37%

Question: What about the IC50 (100 mV, 15 µM Ca2+) of the same compound?
Answer: 3.89 µM

Question: And the remaining activity at 3 µM (100 mV)?
Answer: 55.3%

Question: And the remaining activity at 10 µM (100 mV)?
Answer: 27%

Question: And the remaining activity at 30 µM (100 mV)?
Answer: 15.6%

Question: What about the remaining activity at 100 µM (100 mV) of the same compound?
Answer: 5.12%

Question: What about the IC50 (120 mV, 15 µM Ca2+) of the same compound?
Answer: 4.05 µM

Question: And the remaining activity at 3 µM (120 mV)?
Answer: 56.6%

Question: And the remaining activity at 10 µM (120 mV)?
Answer: 27.6%

Question: And the remaining activity at 30 µM (120 mV)?
Answer: 16%

Question: And the remaining activity at 100 µM (120 mV)?
Answer: 4.9%

Question: And the IC50 (140 mV, 15 µM Ca2+)?
Answer: 4.5 µM

Question: And the remaining activity at 3 µM (140 mV)?
Answer: 58.9%

Question: What about the remaining activity at 10 µM (140 mV) of the same compound?
Answer: 29.8%

Question: And the remaining activity at 30 µM (140 mV)?
Answer: 17.2%

Question: What about the remaining activity at 100 µM (140 mV) of the same compound?
Answer: 5.22%

Question: What about the IC50 (-20 mV, 15 µM Ca2+) of the same compound?
Answer: 8.22 µM

Question: And the remaining activity at 3 µM (-20 mV)?
Answer: 73.2%

Question: And the remaining activity at 10 µM (-20 mV)?
Answer: 44.1%

Question: What about the remaining activity at 30 µM (-20 mV) of the same compound?
Answer: 22.1%

Question: And the remaining activity at 100 µM (-20 mV)?
Answer: 10.2%

Question: What about the IC50 (-40 mV, 15 µM Ca2+) of the same compound?
Answer: 10.2 µM

Question: What about the remaining activity at 3 µM (-40 mV) of the same compound?
Answer: 77.7%

Question: And the remaining activity at 10 µM (-40 mV)?
Answer: 49.5%

Question: And the remaining activity at 30 µM (-40 mV)?
Answer: 25.2%

Question: And the remaining activity at 100 µM (-40 mV)?
Answer: 11%

Question: And the IC50 (-60 mV, 15 µM Ca2+)?
Answer: 12.5 µM

Question: What about the remaining activity at 3 µM (-60 mV) of the same compound?
Answer: 81.7%

Question: What about the remaining activity at 10 µM (-60 mV) of the same compound?
Answer: 54.6%

Question: What about the remaining activity at 30 µM (-60 mV) of the same compound?
Answer: 29.3%

Question: And the remaining activity at 100 µM (-60 mV)?
Answer: 11.8%

Question: What about the IC50 (-80 mV, 15 µM Ca2+) of the same compound?
Answer: 16 µM

Question: And the remaining activity at 3 µM (-80 mV)?
Answer: 85.2%

Question: What about the remaining activity at 10 µM (-80 mV) of the same compound?
Answer: 60.7%

Question: And the remaining activity at 30 µM (-80 mV)?
Answer: 34%

Question: What about the remaining activity at 100 µM (-80 mV) of the same compound?
Answer: 16.3%

Question: And the IC50 (-100 mV, 15 µM Ca2+)?
Answer: 19.2 µM

Question: What about the remaining activity at 3 µM (-100 mV) of the same compound?
Answer: 87.8%

Question: And the remaining activity at 10 µM (-100 mV)?
Answer: 65.1%

Question: And the remaining activity at 30 µM (-100 mV)?
Answer: 37.6%

Question: And the remaining activity at 100 µM (-100 mV)?
Answer: 18.6%

Question: What about the IC50 (-120 mV, 15 µM Ca2+) of the same compound?
Answer: 23.6 µM

Question: What about the remaining activity at 3 µM (-120 mV) of the same compound?
Answer: 90.9%

Question: And the remaining activity at 10 µM (-120 mV)?
Answer: 69.5%

Question: And the remaining activity at 30 µM (-120 mV)?
Answer: 41.8%

Question: And the remaining activity at 100 µM (-120 mV)?
Answer: 22.1%

Question: What about the IC50 (-140 mV, 15 µM Ca2+) of the same compound?
Answer: 27.8 µM

Question: What about the remaining activity at 3 µM (-140 mV) of the same compound?
Answer: 92.3%

Question: What about the remaining activity at 10 µM (-140 mV) of the same compound?
Answer: 72.1%

Question: What about the remaining activity at 30 µM (-140 mV) of the same compound?
Answer: 45.6%

Question: What about the remaining activity at 100 µM (-140 mV) of the same compound?
Answer: 25.9%

Question: And the IC50 (I636A, V 0 mV)?
Answer: 6.73 µM

Question: What about the IC50 (I636A, V 20 mV) of the same compound?
Answer: 5.47 µM

Question: And the IC50 (I636A, V 40 mV)?
Answer: 4.65 µM

Question: And the IC50 (I636A, V 60 mV)?
Answer: 4.03 µM

Question: And the IC50 (I636A, V 80 mV)?
Answer: 3.83 µM

Question: What about the IC50 (I636A, V 100 mV) of the same compound?
Answer: 3.89 µM

Question: And the IC50 (I636A, V 120 mV)?
Answer: 4.05 µM

Question: And the IC50 (I636A, V 140 mV)?
Answer: 4.5 µM

Question: And the IC50 (I636A, V -20 mV)?
Answer: 8.22 µM

Question: What about the IC50 (I636A, V -40 mV) of the same compound?
Answer: 10.2 µM

Question: And the IC50 (I636A, V -60 mV)?
Answer: 12.5 µM

Question: What about the IC50 (I636A, V -80 mV) of the same compound?
Answer: 16 µM

Question: And the IC50 (I636A, V -100 mV)?
Answer: 19.2 µM

Question: What about the IC50 (I636A, V -120 mV) of the same compound?
Answer: 23.6 µM

Question: What about the IC50 (I636A, V -140 mV) of the same compound?
Answer: 27.8 µM
